Legend:
BAS0541T = molecular target: T1, BAS0541T (Bacillus anthracis, UniProt A0A384L3H6); details: labelled compound ([gamma-32P]ATP mixed with 2.5 uM ATP), 4 mM MgCl2, pH 8, 37 °C
T1 construct: gene GBAA_0572

BAS0540 = molecular target: T2, BAS0540 (Bacillus anthracis, UniProt A0A6L7HQL1); details: 60 mM donor, 20 mM MgCl2, pH 7.5, 37 °C; covalent phosphorylation, probable acceptor Asp50
T2 construct: gene GBAA_0571
T2 sequence (A0A6L7HQL1 1-223 limits assumed): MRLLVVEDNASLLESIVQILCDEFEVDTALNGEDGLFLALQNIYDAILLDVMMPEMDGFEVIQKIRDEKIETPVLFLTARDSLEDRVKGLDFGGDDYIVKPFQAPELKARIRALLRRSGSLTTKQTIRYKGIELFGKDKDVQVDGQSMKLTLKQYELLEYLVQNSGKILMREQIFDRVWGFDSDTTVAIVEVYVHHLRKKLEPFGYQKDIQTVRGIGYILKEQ

T1 sequence (A0A384L3H6 190-416 limits assumed): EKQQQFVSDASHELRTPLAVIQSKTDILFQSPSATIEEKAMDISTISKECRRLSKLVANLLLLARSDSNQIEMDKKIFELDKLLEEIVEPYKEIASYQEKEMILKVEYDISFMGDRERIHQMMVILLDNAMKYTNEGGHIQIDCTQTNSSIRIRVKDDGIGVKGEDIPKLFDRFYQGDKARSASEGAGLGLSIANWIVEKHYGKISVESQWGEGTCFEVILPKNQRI

**Q.** Which “autophosphorylation, SDS-PAGE autoradiography” value (BAS0541T) does the source give for `Nc1ncnc2c1ncn2[C@@H]1O[C@H](COP(=O)(O)OP(=O)(O)OP(=O)(O)O)[C@@H](O)[C@H]1O` [ATP] here?
**A.** Autophosphorylation was assayed by incubating the purified BAS0541T with radiolabelled ATP mixture

**Q.** Which “phosphorylation by small-molecule donor, native PAGE, Coomassie” value (BAS0540) does the source give for `CC(=O)OP(=O)(O)O` [acetyl phosphate] here?
**A.** physiologically relevant small molecule phosphodonors, AcP and CP

**Q.** With `NC(=O)OP(=O)(O)O` [carbamoyl phosphate] as the compound, how does the “phosphorylation by small-molecule donor, native PAGE, Coomassie” value (BAS0540) read?
**A.** physiologically relevant small molecule phosphodonors, AcP and CP
